In PMC7111793 (Tetrahedron, 2006):
Peptide text beside a SMILES is read from it. * marks the point of attachment. Cbz = O=C(OCc1ccccc1)*; CF3 = FC(F)(F)*

Target: SARS-CoV 3CL^pro (Severe acute respiratory syndrome coronavirus, UniProt P0C6X7)
Assay type: biochemical

Question: With `CC(C)C[C@H](NC(=O)[C@@H](NC(=O)[C@H](C)NC(=O)OCc1ccccc1)C(C)C)C(=O)N[C@@H](CCC(N)=O)C(=O)C(F)(F)F` [Compound 4, (S)-4-[N-(Benzyloxycarbonyl)-L-alanyl-L-valyl-L-leucyl]amino-6,6,6-trifluoro-5-oxohexanamide] (Cbz-AVLQ-CF3) as the compound, how does the “inhibitory activity in words” value read?
Answer: Its value is “moderate SARS-CoV 3CL^pro inhibitors”.
